Read-outs that look alike come from different tables or passages of the source.
Tests used:
Assay in all cases: TGFα-shedding assay-based GPCR screening with chimeric Gα subunit proteins
Type in all cases: cell-based
348 GPCRs [1] = biological target: T1, 348 GPCRs (Homo sapiens, UniProt P04000); conditions: 10µM, Favipiravir 100μM
T1 construct: expressed in transfected cells; host or cells: HEK293A
T1 sequence (P04000 1-364): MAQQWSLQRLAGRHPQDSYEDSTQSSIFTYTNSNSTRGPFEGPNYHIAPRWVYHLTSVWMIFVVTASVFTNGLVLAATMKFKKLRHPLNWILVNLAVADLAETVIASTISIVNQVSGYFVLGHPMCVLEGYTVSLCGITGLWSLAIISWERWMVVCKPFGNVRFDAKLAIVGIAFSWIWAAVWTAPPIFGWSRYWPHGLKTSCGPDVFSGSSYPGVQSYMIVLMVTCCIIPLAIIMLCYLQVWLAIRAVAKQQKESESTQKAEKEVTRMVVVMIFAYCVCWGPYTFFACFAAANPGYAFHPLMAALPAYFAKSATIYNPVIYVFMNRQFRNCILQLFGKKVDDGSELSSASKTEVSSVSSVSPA

348 GPCRs [2] = biological target: 348 GPCRs (Homo sapiens, UniProt P25103); conditions: 10µM, Favipiravir 100μM
348 GPCRs (Homo sapiens, UniProt P25103), sequence (P25103 whole entry): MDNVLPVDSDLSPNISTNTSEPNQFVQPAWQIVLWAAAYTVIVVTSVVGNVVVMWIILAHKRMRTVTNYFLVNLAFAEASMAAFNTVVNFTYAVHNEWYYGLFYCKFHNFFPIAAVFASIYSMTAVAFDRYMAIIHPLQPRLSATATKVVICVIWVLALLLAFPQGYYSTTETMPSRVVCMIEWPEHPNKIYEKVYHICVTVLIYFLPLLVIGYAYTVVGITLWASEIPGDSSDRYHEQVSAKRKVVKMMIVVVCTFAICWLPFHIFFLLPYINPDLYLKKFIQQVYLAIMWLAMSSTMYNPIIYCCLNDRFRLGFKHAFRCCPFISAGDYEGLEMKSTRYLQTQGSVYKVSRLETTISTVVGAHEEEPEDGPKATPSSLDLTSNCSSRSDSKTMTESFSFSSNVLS

348 GPCRs [3] = biological target: T2, 348 GPCRs (Homo sapiens, UniProt P25116); conditions: 10µM, Favipiravir 100μM
T2 construct: expressed in transfected cells; host or cells: HEK293A
T2 sequence (P25116 22-425): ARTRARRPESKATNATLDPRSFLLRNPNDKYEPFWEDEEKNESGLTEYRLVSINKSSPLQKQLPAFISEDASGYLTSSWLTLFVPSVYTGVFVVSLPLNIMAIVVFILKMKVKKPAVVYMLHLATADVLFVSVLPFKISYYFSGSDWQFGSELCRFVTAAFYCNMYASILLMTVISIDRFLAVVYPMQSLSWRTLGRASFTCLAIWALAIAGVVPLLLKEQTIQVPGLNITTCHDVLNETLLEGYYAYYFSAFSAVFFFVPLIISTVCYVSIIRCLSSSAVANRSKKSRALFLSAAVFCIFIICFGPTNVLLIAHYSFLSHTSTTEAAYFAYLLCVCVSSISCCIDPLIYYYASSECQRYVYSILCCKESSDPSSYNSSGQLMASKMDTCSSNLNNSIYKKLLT

348 GPCRs [4] = biological target: 348 GPCRs (Homo sapiens, UniProt P30989); conditions: 10µM, Favipiravir 100μM
348 GPCRs (Homo sapiens, UniProt P30989), sequence (P30989 whole entry): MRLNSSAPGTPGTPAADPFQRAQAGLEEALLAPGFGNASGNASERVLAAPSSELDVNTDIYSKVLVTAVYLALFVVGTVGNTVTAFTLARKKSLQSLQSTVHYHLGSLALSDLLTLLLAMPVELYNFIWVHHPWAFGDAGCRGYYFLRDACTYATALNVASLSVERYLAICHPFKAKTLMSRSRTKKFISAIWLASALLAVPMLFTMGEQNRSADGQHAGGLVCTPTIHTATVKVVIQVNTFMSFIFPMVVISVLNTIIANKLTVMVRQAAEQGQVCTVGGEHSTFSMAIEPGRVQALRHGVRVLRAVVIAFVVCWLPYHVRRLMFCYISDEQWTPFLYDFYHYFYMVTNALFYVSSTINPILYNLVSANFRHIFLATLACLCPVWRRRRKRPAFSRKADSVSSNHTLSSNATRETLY

348 GPCRs [5] = biological target: T3, 348 GPCRs (Homo sapiens, UniProt P35367); conditions: 10µM, Favipiravir 100μM
T3 construct: expressed in transfected cells; host or cells: HEK293A
T3 sequence (P35367 whole entry): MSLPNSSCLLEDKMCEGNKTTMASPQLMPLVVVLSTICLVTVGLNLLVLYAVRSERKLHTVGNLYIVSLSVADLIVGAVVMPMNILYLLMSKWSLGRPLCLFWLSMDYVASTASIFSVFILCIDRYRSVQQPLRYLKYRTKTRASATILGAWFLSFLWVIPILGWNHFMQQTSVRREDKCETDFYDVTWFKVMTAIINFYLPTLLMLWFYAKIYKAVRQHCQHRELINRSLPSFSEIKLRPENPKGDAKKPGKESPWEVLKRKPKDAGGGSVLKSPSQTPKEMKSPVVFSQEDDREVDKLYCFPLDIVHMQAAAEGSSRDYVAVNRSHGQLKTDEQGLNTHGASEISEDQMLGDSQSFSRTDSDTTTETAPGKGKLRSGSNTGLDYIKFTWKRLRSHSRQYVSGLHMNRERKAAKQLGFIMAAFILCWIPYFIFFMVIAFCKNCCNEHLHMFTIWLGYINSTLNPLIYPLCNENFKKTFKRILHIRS

348 GPCRs [6] = biological target: T4, 348 GPCRs (Homo sapiens, UniProt P35410)
T4 construct: expressed in transfected cells; host or cells: HEK293A
T4 sequence (P35410 1-378): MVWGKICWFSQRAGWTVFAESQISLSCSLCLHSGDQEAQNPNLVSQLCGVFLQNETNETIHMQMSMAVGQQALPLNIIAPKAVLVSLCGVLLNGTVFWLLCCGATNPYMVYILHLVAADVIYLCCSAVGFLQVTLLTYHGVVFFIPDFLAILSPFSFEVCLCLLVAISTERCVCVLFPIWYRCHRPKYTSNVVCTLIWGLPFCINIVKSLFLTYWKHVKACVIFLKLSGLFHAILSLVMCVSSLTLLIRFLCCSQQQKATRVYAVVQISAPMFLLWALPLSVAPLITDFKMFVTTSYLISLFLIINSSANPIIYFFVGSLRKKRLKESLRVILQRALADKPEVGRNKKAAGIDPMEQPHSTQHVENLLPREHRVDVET

348 GPCRs [7] = biological target: T5, 348 GPCRs (Homo sapiens, UniProt P47211); conditions: 10µM, Favipiravir 100μM
T5 sequence (P47211 1-349): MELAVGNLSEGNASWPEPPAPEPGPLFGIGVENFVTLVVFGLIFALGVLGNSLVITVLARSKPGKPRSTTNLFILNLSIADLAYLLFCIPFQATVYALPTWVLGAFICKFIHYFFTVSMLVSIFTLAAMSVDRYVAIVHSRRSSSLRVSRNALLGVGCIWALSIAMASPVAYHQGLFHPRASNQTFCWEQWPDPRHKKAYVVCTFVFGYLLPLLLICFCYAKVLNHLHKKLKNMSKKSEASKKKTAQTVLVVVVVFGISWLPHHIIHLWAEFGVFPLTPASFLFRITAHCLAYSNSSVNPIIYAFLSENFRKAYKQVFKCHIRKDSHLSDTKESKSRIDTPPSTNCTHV

348 GPCRs [8] = biological target: T6, 348 GPCRs (Homo sapiens, UniProt Q14831); conditions: 10µM, Favipiravir 100μM
T6 construct: expressed in transfected cells; host or cells: HEK293A
T6 sequence (Q14831 35-915): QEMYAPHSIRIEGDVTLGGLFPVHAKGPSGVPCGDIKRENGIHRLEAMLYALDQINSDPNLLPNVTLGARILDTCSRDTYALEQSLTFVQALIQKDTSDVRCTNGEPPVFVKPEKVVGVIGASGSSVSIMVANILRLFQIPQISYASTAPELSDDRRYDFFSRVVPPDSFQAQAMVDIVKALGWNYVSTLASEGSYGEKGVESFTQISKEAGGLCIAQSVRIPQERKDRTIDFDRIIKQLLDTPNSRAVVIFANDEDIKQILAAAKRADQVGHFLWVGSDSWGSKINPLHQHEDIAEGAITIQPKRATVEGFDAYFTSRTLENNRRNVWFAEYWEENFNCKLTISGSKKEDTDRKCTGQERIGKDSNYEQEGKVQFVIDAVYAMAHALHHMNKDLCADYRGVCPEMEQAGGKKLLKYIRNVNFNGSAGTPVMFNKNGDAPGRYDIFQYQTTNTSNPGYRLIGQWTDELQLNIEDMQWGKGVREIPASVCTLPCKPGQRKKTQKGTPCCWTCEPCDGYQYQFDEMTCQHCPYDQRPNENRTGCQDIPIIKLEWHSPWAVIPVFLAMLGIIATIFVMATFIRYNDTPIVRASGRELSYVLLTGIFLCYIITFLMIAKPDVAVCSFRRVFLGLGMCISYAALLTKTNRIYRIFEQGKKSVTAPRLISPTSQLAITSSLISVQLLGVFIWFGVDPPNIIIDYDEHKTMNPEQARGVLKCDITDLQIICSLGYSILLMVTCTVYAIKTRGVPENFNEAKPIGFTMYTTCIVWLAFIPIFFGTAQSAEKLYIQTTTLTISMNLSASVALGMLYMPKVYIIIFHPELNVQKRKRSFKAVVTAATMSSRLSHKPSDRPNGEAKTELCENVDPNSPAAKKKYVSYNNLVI

348 GPCRs [9] = biological target: T7, 348 GPCRs (Homo sapiens, UniProt Q49SQ1); conditions: 10µM, Favipiravir 100μM
T7 construct: expressed in transfected cells; host or cells: HEK293A
T7 sequence (Q49SQ1 1-333): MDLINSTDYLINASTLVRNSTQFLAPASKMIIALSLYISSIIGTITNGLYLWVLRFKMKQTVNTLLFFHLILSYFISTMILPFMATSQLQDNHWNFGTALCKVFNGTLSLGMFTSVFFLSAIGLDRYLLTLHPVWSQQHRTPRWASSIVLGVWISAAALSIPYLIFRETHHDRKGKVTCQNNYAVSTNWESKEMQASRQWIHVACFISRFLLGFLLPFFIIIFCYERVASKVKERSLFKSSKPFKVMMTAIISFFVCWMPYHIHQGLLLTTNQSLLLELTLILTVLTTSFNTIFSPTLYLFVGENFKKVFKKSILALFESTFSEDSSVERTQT

[10] = OPN1LW (opsin 1 (cone pigments), long-wave-sensitive), read-out: % GPCR activation compared to TPA
[11] = NK1 (tachykinin receptor 1), read-out: % GPCR activation compared to TPA
[12] = F2R (coagulation factor II (thrombin) receptor), read-out: % GPCR activation compared to TPA
[13] = NTSR1(CO) (neurotensin receptor 1), read-out: % GPCR activation compared to TPA
[14] = H1 (histamine receptor H1), read-out: % GPCR activation compared to TPA
[15] = GPCR MAS1L (MAS1 oncogene-like), read-out: % GPCR activation compared to TPA
[16] = GALR1 (galanin receptor 1), read-out: % GPCR activation compared to TPA
[17] = GRM7 (glutamate receptor, metabotropic 7), read-out: % GPCR activation compared to TPA
[18] = GPR33 (G protein-coupled receptor 33), read-out: % GPCR activation compared to TPA
[19] = read-out: % GPCR activation compared to TPA, OPN1LW (opsin 1 (cone pigments), long-wave-sensitive)
[20] = read-out: % GPCR activation compared to TPA, NK1 (tachykinin receptor 1)
[21] = read-out: % GPCR activation compared to TPA, F2R (coagulation factor II (thrombin) receptor)
[22] = read-out: % GPCR activation compared to TPA, NTSR1(CO) (neurotensin receptor 1)
[23] = read-out: % GPCR activation compared to TPA, H1 (histamine receptor H1)
[24] = read-out: % GPCR activation compared to TPA, GPCR MAS1L (MAS1 oncogene-like)
[25] = read-out: % GPCR activation compared to TPA, GALR1 (galanin receptor 1)
[26] = read-out: % GPCR activation compared to TPA, GRM7 (glutamate receptor, metabotropic 7)
[27] = read-out: % GPCR activation compared to TPA, GPR33 (G protein-coupled receptor 33)

| activation at 100 µM (348 GPCRs [1]; [10]) [%] | activation at 10 µM (348 GPCRs [2]; [11]) [%] | activation at 10 µM (348 GPCRs [3]; [12]) [%] | activation at 100 µM (348 GPCRs [4]; [13]) [%] | activation at 10 µM (348 GPCRs [5]; [14]) [%] | activation at 10 µM (348 GPCRs [6]; [15]) [%] | activation at 100 µM (348 GPCRs [7]; [16]) [%] | activation at 10 µM (348 GPCRs [8]; [17]) [%] | activation at 10 µM (348 GPCRs [9]; [18]) [%] | activation at 100 µM (348 GPCRs [6]; GPCR MAS1L (MAS1 oncogene-like), 100μM, read-out: % GPCR activation compared to TPA) [%] | Structure (SMILES) | activation at 100 µM (348 GPCRs [1]; [19]) [%] | activation at 10 µM (348 GPCRs [2]; [20]) [%] | activation at 10 µM (348 GPCRs [3]; [21]) [%] | activation at 100 µM (348 GPCRs [4]; [22]) [%] | activation at 10 µM (348 GPCRs [5]; [23]) [%] | activation at 10 µM (348 GPCRs [6]; [24]) [%] | activation at 100 µM (348 GPCRs [7]; [25]) [%] | activation at 10 µM (348 GPCRs [8]; [26]) [%] | activation at 10 µM (348 GPCRs [9]; [27]) [%] |
| --- | --- | --- | --- | --- | --- | --- | --- | --- | --- | --- | --- | --- | --- | --- | --- | --- | --- | --- | --- |
| 0.263 | -3.44 | -2.55 | -1.75 | 0.654 | – | 7.08 | -0.143 | -0.127 | -0.101 | NC(=O)c1nc(F)cnc1O [favipiravir, 6-fluoro-3-hydroxy-2-pyrazinecarboxamide] | – | – | – | – | – | – | – | – | – |
| 0.884 | 1.66 | -0.992 | -6.1 | -2.24 | 0.3 | 1.08 | -1.87 | -3.96 | – | CC(C)C(=O)OC[C@H]1O[C@@H](n2ccc(NO)nc2=O)[C@H](O)[C@@H]1O [molnupiravir] | – | – | – | – | – | – | – | – | – |

The remaining lines, values behind:

| Structure (SMILES) | activation at 100 µM (348 GPCRs [1]; [10]) [%] | activation at 10 µM (348 GPCRs [2]; [11]) [%] | activation at 10 µM (348 GPCRs [3]; [12]) [%] | activation at 100 µM (348 GPCRs [4]; [13]) [%] | activation at 10 µM (348 GPCRs [5]; [14]) [%] | activation at 10 µM (348 GPCRs [6]; [15]) [%] | activation at 100 µM (348 GPCRs [7]; [16]) [%] | activation at 10 µM (348 GPCRs [8]; [17]) [%] | activation at 10 µM (348 GPCRs [9]; [18]) [%] | activation at 100 µM (348 GPCRs [6]; GPCR MAS1L (MAS1 oncogene-like), 100μM, read-out: % GPCR activation compared to TPA) [%] | activation at 100 µM (348 GPCRs [1]; [19]) [%] | activation at 10 µM (348 GPCRs [2]; [20]) [%] | activation at 10 µM (348 GPCRs [3]; [21]) [%] | activation at 100 µM (348 GPCRs [4]; [22]) [%] | activation at 10 µM (348 GPCRs [5]; [23]) [%] | activation at 10 µM (348 GPCRs [6]; [24]) [%] | activation at 100 µM (348 GPCRs [7]; [25]) [%] | activation at 10 µM (348 GPCRs [8]; [26]) [%] | activation at 10 µM (348 GPCRs [9]; [27]) [%] |
| --- | --- | --- | --- | --- | --- | --- | --- | --- | --- | --- | --- | --- | --- | --- | --- | --- | --- | --- | --- |
| N#C[C@@]1(c2ccc3c(N)ncnn23)O[C@H](CO)[C@@H](O)[C@H]1O [GS441524] | -0.985 | -0.668 | -1.57 | -0.341 | -5.47 | 3.15 | 0.832 | 1.06 | 3.02 | – | – | – | – | – | – | – | – | – | – |
| CCC(CC)COC(=O)[C@H](C)N[P@](=O)(OC[C@H]1O[C@@](C#N)(c2ccc3c(N)ncnn23)[C@H](O)[C@@H]1O)Oc1ccccc1 [remdesivir] | – | – | – | – | – | – | – | – | – | – | 0.199 | -0.867 | -1.45 | -1.56 | -3.69 | 0.269 | 6.53 | -0.738 | 2.55 |
| CC(C)OC(=O)[C@H](C)N[P@](=O)(OC[C@H]1O[C@@H](n2ccc(=O)[nH]c2=O)[C@](C)(F)[C@@H]1O)Oc1ccccc1 [sofosbuvir] | – | – | – | – | – | – | – | – | – | – | -0.65 | -1.29 | -1.12 | -8.04 | -0.312 | 0.457 | -0.0144 | 10.4 | -2.13 |

From PMC10175918 (Communications Biology, 2023)
